Laboratory results published in patent publication US20250176598A1, “AMIDE COMPOUNDS AND THEIR USE AS FLAVOR MODIFIERS” (Firmenich Incorporated, priority 2022, published 2025).

Target: T1, T1R umami taste receptor (Homo sapiens, UniProt Q7RTX0+Q7RTX1)
T1 sequence (Q7RTX1 21-841): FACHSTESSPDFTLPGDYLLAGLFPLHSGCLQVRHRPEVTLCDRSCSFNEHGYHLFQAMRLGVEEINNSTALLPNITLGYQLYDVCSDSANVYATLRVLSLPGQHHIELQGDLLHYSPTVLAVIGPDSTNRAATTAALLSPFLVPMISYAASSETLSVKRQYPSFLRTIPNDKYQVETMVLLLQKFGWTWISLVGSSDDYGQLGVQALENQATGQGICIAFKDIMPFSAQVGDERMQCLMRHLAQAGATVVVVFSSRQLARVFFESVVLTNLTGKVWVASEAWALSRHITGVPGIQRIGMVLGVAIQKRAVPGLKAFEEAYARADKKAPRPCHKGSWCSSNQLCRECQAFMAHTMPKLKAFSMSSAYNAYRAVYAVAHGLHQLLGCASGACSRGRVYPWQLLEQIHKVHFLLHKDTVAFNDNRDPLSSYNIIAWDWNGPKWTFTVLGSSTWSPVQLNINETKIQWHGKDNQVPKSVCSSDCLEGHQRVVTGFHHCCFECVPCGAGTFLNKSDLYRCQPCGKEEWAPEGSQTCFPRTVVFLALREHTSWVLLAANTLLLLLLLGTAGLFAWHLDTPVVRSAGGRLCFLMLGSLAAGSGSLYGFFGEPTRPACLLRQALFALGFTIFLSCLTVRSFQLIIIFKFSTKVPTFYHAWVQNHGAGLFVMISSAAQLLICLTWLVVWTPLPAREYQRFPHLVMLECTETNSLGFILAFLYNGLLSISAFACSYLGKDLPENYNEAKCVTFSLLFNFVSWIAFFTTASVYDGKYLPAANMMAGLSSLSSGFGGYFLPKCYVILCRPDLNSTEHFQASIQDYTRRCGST
T1 sequence (Q7RTX0 21-852): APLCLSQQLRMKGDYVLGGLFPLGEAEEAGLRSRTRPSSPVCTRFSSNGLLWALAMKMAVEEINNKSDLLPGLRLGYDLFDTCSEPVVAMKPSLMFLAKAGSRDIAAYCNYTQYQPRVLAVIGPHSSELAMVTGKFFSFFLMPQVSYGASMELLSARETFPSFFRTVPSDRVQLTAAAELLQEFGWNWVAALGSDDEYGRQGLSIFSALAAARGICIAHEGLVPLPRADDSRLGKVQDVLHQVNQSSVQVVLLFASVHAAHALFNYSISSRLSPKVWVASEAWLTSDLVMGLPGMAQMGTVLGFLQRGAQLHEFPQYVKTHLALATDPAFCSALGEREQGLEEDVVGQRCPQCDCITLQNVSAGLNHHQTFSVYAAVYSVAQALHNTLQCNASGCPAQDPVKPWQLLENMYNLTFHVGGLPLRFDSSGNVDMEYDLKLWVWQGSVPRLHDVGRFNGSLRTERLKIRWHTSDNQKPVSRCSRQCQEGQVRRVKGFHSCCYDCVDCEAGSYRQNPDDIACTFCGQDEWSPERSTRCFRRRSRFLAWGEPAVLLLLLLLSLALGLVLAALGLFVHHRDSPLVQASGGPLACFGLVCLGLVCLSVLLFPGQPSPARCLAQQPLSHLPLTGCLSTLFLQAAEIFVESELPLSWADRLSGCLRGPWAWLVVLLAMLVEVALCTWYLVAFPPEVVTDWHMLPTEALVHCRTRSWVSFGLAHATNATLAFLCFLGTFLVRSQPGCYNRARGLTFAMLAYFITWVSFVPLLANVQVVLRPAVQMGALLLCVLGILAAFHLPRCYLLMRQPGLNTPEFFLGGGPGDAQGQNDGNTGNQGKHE
Assay: in vitro cell-based assay, cells expressing the T1R umami taste receptor; enhancement of MSG
Settings: for MSG Enh. Ratio: MSG enhancement ratio at a particular concentration (concentration not given); for EC50: cells that express the T1R umami taste receptor, dose-binding curves; for MSG Enh. Ratio @ [10 uM]: compound at 10 uM
Method: Each of Compounds 101-145 was synthesized according to one of the general procedures set forth above in Examples 1 and Example 2. Thereafter, the compounds were tested in an in vitro cell-based assay having cells that express the T1R umami taste receptor. Dose-binding curves were recorded and the EC50 was determined for enhancement of MSG binding. Table 2 sets forth the calculated EC50 values for certain tested compounds as well as the MSG enhancement ratio at a particular concentration.

SMILES | MSG Enh. Ratio | EC50 [µM] | MSG Enh. Ratio @ [10 uM]
O=C(N[C@H](CO)Cc1ccccc1)c1ccc2c(c1)OCO2 [Compound 111, (S)-N-(1-hydroxy-3-phenylpropan-2-yl) benzo[d][1,3]dioxole-5-carboxamide] | 1.8 | > 50 | 
CC(C)C[C@@H](CO)NC(=O)c1ccc2c(c1)OCO2 [Compound 112, (S)-N-(1-hydroxy-4-methylpentan-2-yl) benzo[d][1,3]dioxole-5-carboxamide] | 2.3 | > 50 | 
COc1cccc(C(=O)N[C@H](CO)Cc2ccccc2)c1O [Compound 113, (S)-2-hydroxy-N-(1-hydroxy-3-phenylpropan-2-yl)-3-methoxybenzamide] | 1.6 | > 50 | 
COc1ccc(/C=C/C(=O)N[C@H](CO)CC(C)C)cc1 [Compound 114, (S,E)-3-(4-methoxyphenyl)-N-(1-hydroxy-4-methylpentan-2-yl)acrylamide] | 1.7 | > 50 | 
COc1ccc(/C=C/C(=O)N[C@H](CO)Cc2ccccc2)cc1 [Compound 116, (S,E)-3-(4-methoxyphenyl)-N-(1-hydroxy-3-phenylpropan-2-yl)acrylamide] |  | 11 | 6.9 @ [10 uM]
Cc1ccc(C(=O)N[C@H](Cc2ccccc2)C(=O)O)cc1 [Compound 120, (4-methylbenzoyl)-D-phenylalanine] | 1.3 | > 50 | 
Cc1ccc(C(=O)N[C@H](C(=O)O)C(C)C)cc1C [Compound 121, (3,4-dimethylbenzoyl)-L-valine] | 1.1 | > 50 | 
Cc1ccc(C(=O)N[C@@H](CC(C)C)C(=O)O)cc1 [Compound 123, (4-methylbenzoyl)-L-leucine] | 1.2 | > 50 | 
Cc1ccc(C(=O)N[C@@H](C(=O)O)C(C)C)cc1C [Compound 124, (3,4-dimethylbenzoyl)-D-valine] | 1.2 | > 50 | 
Cc1ccc(C(=O)N[C@H](Cc2ccccc2)C(=O)O)cc1C [Compound 125, (3,4-dimethylbenzoyl)-D-phenylalanine] | 1.3 | > 50 | 
COc1ccc(C[C@H](NC(=O)c2ccc(C)c(C)c2)C(=O)O)cc1 [Compound 127, (S)-2-(3,4-dimethylbenzamido)-3-(4-methoxyphenyl) propanoic acid] | 2.0 | > 50 | 
Cc1ccc(C(=O)N[C@@H](CCC(=O)O)C(=O)O)cc1C [Compound 128, (3,4-dimethylbenzoyl)-L-glutamic acid] | 1.4 | > 50 | 
O=C(O)CC[C@H](NC(=O)c1ccc2c(c1)OCO2)C(=O)O [Compound 131, (benzo[d][1,3]dioxole-5-carbonyl)-L-glutamic acid] | 1.2 | > 50 | 
CC(C)[C@H](NC(=O)/C=C/c1ccccc1)C(=O)O [Compound 132, Cinnamoyl-L-valine] | 1.7 | > 50 | 
CC(C)C[C@H](NC(=O)/C=C/c1ccccc1)C(=O)O [Compound 133, Cinnamoyl-L-leucine] | 1.1 | > 50 | 
O=C(O)CC[C@H](NC(=O)/C=C/c1ccccc1)C(=O)O [Compound 134, Cinnamoyl-L-glutamate] | 1.2 | > 50 | 
COc1ccc(/C=C/C(=O)N[C@@H](Cc2ccc(OC)cc2)C(=O)O)cc1 [Compound 135, (S,E)-3-(4-methoxyphenyl)-2-(3-(4-methoxyphenyl)acrylamido)propanoic acid] | 2.0 | > 50 | 

Second part, led by results:

MSG Enh. Ratio | EC50 [µM] | SMILES | MSG Enh. Ratio @ [10 uM]
1.5 | > 50 | CCC(C)[C@@H](CO)NC(=O)/C=C/c1ccc(OC)cc1 (stereo in doubt) [Compound 115, (E)-N-((2S,3R)-1-hydroxy-3-methylpentan-2-yl)-3-(4-methoxyphenyl)acrylamide] | 
1.4 | > 50 | CC(C)c1ccc(C(=O)N[C@H](CO)Cc2ccccc2)cc1 [Compound 101, (S)-N-(1-hydroxy-3-phenylpropan-2-yl)-4-isopropylbenzamide] | 
1.4 | > 50 | CC(C)C[C@@H](CO)NC(=O)c1ccc(C(C)C)cc1 [Compound 102, (S)-N-(1-hydroxy-4-methylpentan-2-yl)-4-isopropylbenzamide] | 
1.2 | > 50 | CC[C@H](C)[C@@H](CO)NC(=O)c1ccc(C(C)C)cc1 [Compound 103, N-((2S,3S)-1-hydroxy-3-methylpentan-2-yl)-4-isopropylbenzamide] | 
2.8 | > 50 | Cc1ccc(C(=O)N[C@H](CO)CC(C)C)cc1C [Compound 104, (S)-N-(1-hydroxy-4-methylpentan-2-yl)-3,4-dimethylbenzamide] | 
3.4 | > 50 | Cc1ccc(C(=O)N[C@H](CO)Cc2ccccc2)cc1C [Compound 105, (S)-N-(1-hydroxy-3-phenylpropan-2-yl)-3,4-dimethylbenzamide] | 
2.5 | > 50 | CC[C@H](C)[C@@H](CO)NC(=O)c1ccc(C)c(C)c1 [Compound 106, N-((2S,3S)-1-hydroxy-3-methylpentan-2-yl)-3,4-dimethylbenzamide] | 
1.9 | > 50 | COc1cc(OC)cc(C(=O)N[C@H](CO)Cc2ccccc2)c1 [Compound 107, (S)-N-(1-hydroxy-3-phenylpropan-2-yl)-3,5-dimethoxybenzamide] | 
1.3 | > 50 | COc1cc(OC)cc(C(=O)N[C@H](CO)CC(C)C)c1 [Compound 108, (S)-N-(1-hydroxy-4-methylpentan-2-yl)-3,5-dimethoxybenzamide] | 
1.1 | > 50 | CC[C@H](C)[C@@H](CO)NC(=O)c1cc(OC)cc(OC)c1 [Compound 109, N-((2S,3S)-1-hydroxy-3-methylpentan-2-yl)-3,5-dimethoxybenzamide] | 
1.4 | > 50 | CC[C@H](C)[C@@H](CO)NC(=O)c1ccc2c(c1)OCO2 [Compound 110, N-((2S,3S)-1-hydroxy-3-methylpentan-2-yl) benzo[d][1,3]dioxole-5-carboxamide] | 
6.8 | ~25 | CCOc1ccc(/C=C/C(=O)N[C@H](CO)CC(C)C)cc1 [Compound 117, (S,E)-3-(4-ethoxyphenyl)-N-(1-hydroxy-4-methylpentan-2-yl)acrylamide] | 
6.0 | ~40 | CCOc1ccc(/C=C/C(=O)N[C@H](CO)[C@@H](C)CC)cc1 [Compound 118, (E)-3-(4-ethoxyphenyl)-N-((2S,3S)-1-hydroxy-3-methylpentan-2-yl)acrylamide] | 
 | 10 | CCOc1ccc(/C=C/C(=O)N[C@H](CO)Cc2ccccc2)cc1 [Compound 119, (S,E)-3-(4-ethoxyphenyl)-N-(1-hydroxy-3-phenylpropan-2-yl)acrylamide] | 6.1 @ [10 uM]
1.8 | 27 | Cc1ccc(C(=O)N[C@H](CC(C)C)C(=O)O)cc1C [Compound 126, (3,4-dimethylbenzoyl)-D-leucine] | 
3.5 | ~20 | CC(C)C[C@@H](NC(=O)c1ccc2c(c1)OCO2)C(=O)O [Compound 129, (benzo[d][1,3]dioxole-5-carbonyl)-D-leucine] | 
